In US11896589B2, “Diazinyl amino acridines and medical uses thereof” (MyCural Therapeutics AB, priority 2018, dated 2024):

Tests used:
[1] = biological target: T1, endogenous MYC:MAX in MDA-MB231 cells (Homo sapiens, UniProt P01106); experiment: Assay 3B CoIP of endogenous MAX with MYC; format: cell-based
T1 construct: endogenous in cells; host or cells: MDA-MB231
Description: FIG. 4: A) Endogenous MYC:MAX (upper panel) and FRA1:JUN (lower panel) interactions as visualized as fluorescent red dots by isPLA. Nuclei were counterstained with DAPI (blue). Cells were treated with 10 μM of indicated compounds for 16 hours and subjected to isPLA using pairs of MYC and MAX and of FRA1 and JUN antibodies, respectively. As negative control, primary antibody pairs but only one oligo-conjugated secondary antibody was used. B) Quantification of MYC:MAX and C) FRA1:JUN isPLA, representing an average number of nuclear dots per cell from three microscopic fields normalized to corresponding values for DMSO-treated cells. […] 1st-4th lanes from top; coimmunoprecipitated MAX, immunoprecipitated MYC, total levels of MAX and ACTIN, respectively, as determined by western blot analysis. E) MYC:MAX GLuc assay in cells. […] 24 hours later cells were treated with […] of Example 1, Example 2 and control compound for 16 hours and thereafter analyzed in a dual luciferase assay. The ratio of Gaussia/Firefly luciferase luminescence were calculated and normalized to DMSO-treated cells.
Coimmunoprecipitation of endogenous MYC:MAX proteins were essentially carried out as in Bahram, F. et al. Interferon-gamma-induced p27KIP1 binds to and targets MYC for proteasome-mediated degradation. Oncotarget 7, 2837-2854, doi:10.18632/oncotarget.6693 (2016). […]

[2] = biological target: T2, MYC:MAX heterodimer (MYCbHLHZip over immobilized MAXbHLHZip) (Homo sapiens, UniProt P01106); experiment: Assay 1B MYC:MAX SPR heterodimer formation assay; format: binding; details: 100 nM MYCbHLHZip pre-mixed with compound, 25° C.
T2 construct: MYC:MAX heterodimer formation assay based on recombinant proteins
Description: (§1) FIG. 1: A) Microscale thermophoresis (MST) of fluorescently labeled MAX in a MYC:MAX heterodimer formation assay based on recombinant proteins. MST of labeled MAXbHLHZip after titration of Example 1 pre-incubated with 1 μM MYCbHLHZip, or with 1 μM MAXbHLHZip. Fluorescence intensity of labeled MAXbHLHZip relative DMSO was plotted against Example 1 concentration. B) Surface plasmon resonance (SPR) of MYC:MAX heterodimer formation assay. MAXbHLHZip was immobilized by an amino coupling procedure to a CM5 sensor chip. MYCbHLHZip pre-incubated with or without compound (as indicated) was injected over MAX for 180 seconds, allowed to dissociate for 240 seconds and regenerated. Reference surface (without MAXbHLHZip) subtracted sensorgrams are shown from one representative experiment. C) MYC binding response units (RU) plotted against Example 1 concentration from which an IC50 of Example 1 inhibition of MYC:MAX heterodimer formation is determined, summary of four experiments.
Assay 1B. Surface Plasmon Resonance (SPR)
The SPR method is a highly sensitive assay to determine the affinity between protein and ligand and to measure the kinetics of the interaction (see Handbook of Surface Plasmon Resonance 2nd edition, Richard B M Schasfoort (Editor), RSC 2017, ca. 500 p., hardcover, ISBN 978-1-78262-730-2). […]

[3] = system: MYC null (H015.19) Rat1 fibroblast cells; experiment: Assay 5B Tgr cell growth (WST-1), MYC null; format: cell-based, rat; details: 48 hours
Description: FIG. 6: A-B) Neuroblastoma cell lines with (SK-N-DZ, Kelly and IMR-32) or without (SK-N-F1, SK-N-RA and SK-N-AS) MYCN-amplification were exposed to different concentrations of Example 1, Example 2 and control compound, respectively, for 48 hours. Cell growth and viability was estimated by measuring metabolic activity. C) Growth of TGR-1 (wt), HO15.19 (MYC knockout) and HOmyc3 (MYC reconstituted HO15.19) Rat1 fibroblasts, as measured by the WST-1 assay after treatment with Example 1. Data are shown as mean±standard deviation of 3-5 biological experiments, each with 3 technical repeats.
Assay 5B: Tgr Cell Growth
Tgr cells were treated at 37° C. and 5% CO2 at 48 hours with Example and Example 2. H015.19 is a MYC null rat cell line derived from Tgr1 (parental cells), while H0Myc3 cells were generated from the MYC null cells by reconstitution of a MYC gene(Mateyak, M. K., Obaya, A. J., Adachi, S. & Sedivy, J. M. Phenotypes of c-Myc-deficient rat fibroblasts isolated by targeted homologous recombination. Cell Growth Differ 8, 1039-1048 (1997)).

[4] = biological target: T3, MAX:MAX (MAXbHLHZip) (Homo sapiens, UniProt P61244); experiment: Assay 1A MST, labelled MAX pre-mixed with MAX instead of MYC; format: binding; details: 1 μM MAX instead of MYC
T3 construct: Recombinant MYC bHLHZip and MAX bHLHZip proteins were titrated
Description: as §1, with “Reference surface (without MAXbHLHZip) subtracted sensorgrams are shown from one representative experiment.” left out
MST measures the movement of fluorescent labelled molecules in a microscopic temperature gradient. Changes in charge, size or of the hydration shell of the fluorescent molecule affects its migration in the temperature gradient, which can be detected by the fluorescence of the molecule (See Seidel et al., Microscale thermophoresis quantifies biomolecular interactions under previously challenging conditions, METHODS (2013)). […] Capillaries were scanned to measure initial fluorescence of compound. […]

T1 sequence (P01106 whole entry): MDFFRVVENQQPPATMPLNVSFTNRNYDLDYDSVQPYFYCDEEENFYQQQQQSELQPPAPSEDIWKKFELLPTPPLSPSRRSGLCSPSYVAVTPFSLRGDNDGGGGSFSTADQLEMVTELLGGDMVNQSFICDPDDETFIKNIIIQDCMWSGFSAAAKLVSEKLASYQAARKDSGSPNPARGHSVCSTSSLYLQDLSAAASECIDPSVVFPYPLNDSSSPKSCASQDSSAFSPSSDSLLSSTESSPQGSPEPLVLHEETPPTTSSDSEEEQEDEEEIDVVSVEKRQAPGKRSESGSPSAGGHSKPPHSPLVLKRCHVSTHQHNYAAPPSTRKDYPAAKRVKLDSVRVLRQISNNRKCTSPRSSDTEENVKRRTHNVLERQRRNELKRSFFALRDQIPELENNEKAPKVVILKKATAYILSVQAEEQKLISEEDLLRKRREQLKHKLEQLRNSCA
T2 sequence (P01106 368-449 limits assumed, one chain of several): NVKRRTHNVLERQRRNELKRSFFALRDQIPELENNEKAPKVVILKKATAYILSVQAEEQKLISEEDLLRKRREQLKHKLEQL
T3 sequence (P61244 22-102): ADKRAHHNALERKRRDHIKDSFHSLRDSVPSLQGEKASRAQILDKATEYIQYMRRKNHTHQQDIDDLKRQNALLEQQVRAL

CCOc1ccc2nc3cc(/N=N/c4ccc(N)nc4N)ccc3c(N)c2c1 [Example 1, 3-((9-amino-7-ethoxyacridin-3-yl)diazenyl)pyridine-2,6-diamine sulphate hydrate]
reduction of MYC:MAX protein interaction vs DMSO treated cells (CoIP) ([1]; 5 μM, 3.5 hours): More than Half
inhibition at 5 µM ([1]; MDA-MB-231, read-out: CoIP inhibition at 10 μM): > 70%
IC50 [2]: 3.8 µM
growth of the MYC null cells [3]: did not significantly affect
GI50 ([3]; Rattus norvegicus, Fibroblast, first run): > 10 µM
effect on labelled MAX thermophoresis when pre-mixed with MAX [4]: minor effects
